Reference: patent US20230219931A1, “FUSED HETEROARYL HYDROXAMATES AS STING AGONISTS” (BiSiChem Co., Ltd., priority 2022, published 2023)
Structures can show the parent of a compound that is named as a salt.

The compounds below were run on ISG reporter activity in THP1-Dual cell (assay: ISG reporter assay). Settings: Homo sapiens, compounds incubated with cells for 24 hours, QUANTI-Blue, absorbance at 655 nm.
Format: cell-based
Experimental: [Worded in the source for another cell line; this cell line is reported under the same test.] THP1-Blue cells (cat. no. thp-isg) were purchased from InvivoGen (Sandiago, USA). Penicillin—streptomycin (cat. no. L0022-100), Fetal Bovine Serum (FBS) (cat. no. S1480-500) and Roswell Park Memorial Institute (RPMI) 1640 media (cat. L0498-500) were purchased from biowest (Nuaille, France). Zeocin (cat. no. ant-zn-OS) and Normocin (cat. no. ant-nr-1) were purchased from InvivoGen (Sandiago, USA). QUANTI-Blue™ (cat. no. rep-qbs) was purchased from InvivoGen. THP1-Blue cells were cultured in RPMI 1640 medium with 10% heat-inactivated FBS, 100 μg/ml Normocin, 100 μg/ml Zeocin and 100 U/ml-100 μg/ml penicillin-streptomycin. The cells were incubated at 37° C. in a humidified atmosphere of 5% CO2.
THP1-Blue cells were seeded at 5×10^4 cells/well (90 μl/well). 10 μl of compounds were added to the cells and incubated for 24 hours. 20 μl of cell culture supernatant was dispensed new 96-well plate (cat. no. 30096) with 180 μl of QUANTI-Blue™ solution and incubated for 15 minutes at 37° C. The absorbance was measured by Varioskan Lux (Thermofisher Scientific, USA) at 655 nm.

EC50	Compound
< 50 nM	CCn1nc(C)cc1C(=O)Nc1nc2cc(C(N)=O)cc(OC)c2n1C/C=C/Cn1c(NC(=O)c2cc(C)nn2CC)nc2cc(C(N)=O)cc(OCC#CC3CCN(S(C)(=O)=O)CC3)c21 [Example 19, (E)-1-(4-(5-carbamoyl-2-(1-ethyl-3-methyl-1H-pyrazole-5-carboxamido)-7-((3-(1-(methylsulfonyl)piperidin-4-yl)prop-2-yn-1-yl)oxy)-1H-benzo[d]imidazol-1-yl)but-2-en-1-yl)-2-(1-ethyl-3-methyl-1H-pyrazole-5-carboxamido)-7-methoxy-1H-benzo[d]imidazole-5-carboxamide]
< 50 nM	CCn1nc(C)cc1C(=O)Nc1nc2cc(C(N)=O)cc(OC)c2n1C/C=C/Cn1c(NC(=O)c2cc(C)nn2CC)nc2cc(C(N)=O)cc(OCC#CC3CCN(S(=O)(=O)C(C)C)CC3)c21 [Example 20, (E)-1-(4-(5-carbamoyl-2-(1-ethyl-3-methyl-1H-pyrazole-5-carboxamido)-7-((3-(1-(isopropylsulfonyl)piperidin-4-yl)prop-2-yn-1-yl)oxy)-1H-benzo[d]imidazol-1-yl)but-2-en-1-yl)-2-(1-ethyl-3-methyl-1H-pyrazole-5-carboxamido)-7-methoxy-1H-benzo[d]imidazole-5-carboxamide]
< 50 nM	CCn1nc(C)cc1C(=O)Nc1nc2cc(C(N)=O)cc(OC)c2n1C/C=C/Cn1c(NC(=O)c2cc(C)nn2CC)nc2cc(C(N)=O)cc(OCC#CC3CCN(S(=O)(=O)C4CC4)CC3)c21 [Example 21, (E)-1-(4-(5-carbamoyl-2-(1-ethyl-3-methyl-1H-pyrazole-5-carboxamido)-7-methoxy-1H-benzo[d]imidazol-1-yl)but-2-en-1-yl)-7-((3-(1-(cyclopropylsulfonyl)piperidin-4-yl)prop-2-yn-1-yl)oxy)-2-(1-ethyl-3-methyl-1H-pyrazole-5-carboxamido)-1H-benzo[d]imidazole-5-carboxamide]
< 50 nM	CCn1nc(C)cc1C(=O)Nc1nc2cc(C(N)=O)cc(OC)c2n1C/C=C/Cn1c(NC(=O)c2cc(C)nn2CC)nc2cc(C(N)=O)cc(OCC#CC3CCN(S(=O)(=O)C4CCCC4)CC3)c21 [Example 22, (E)-1-(4-(5-carbamoyl-2-(1-ethyl-3-methyl-1H-pyrazole-5-carboxamido)-7-methoxy-1H-benzo[d]imidazol-1-yl)but-2-en-1-yl)-7-((3-(1-(cyclopentylsulfonyl)piperidin-4-yl)prop-2-yn-1-yl)oxy)-2-(1-ethyl-3-methyl-1H-pyrazole-5-carboxamido)-1H-benzo[d]imidazole-5-carboxamide]
< 50 nM	CCn1nc(C)cc1C(=O)Nc1nc2cc(C(N)=O)cc(OC)c2n1C/C=C/Cn1c(NC(=O)c2cc(C)nn2CC)nc2cc(C(N)=O)cc(OCC#CC3CCN(S(=O)(=O)N(C)C)CC3)c21 [Example 24, (E)-1-(4-(5-carbamoyl-2-(1-ethyl-3-methyl-1H-pyrazole-5-carboxamido)-7-methoxy-1H-benzo[d]imidazol-1-yl)but-2-en-1-yl)-7-((3-(1-(N,N-dimethylsulfamoyl)piperidin-4-yl)prop-2-yn-1-yl)oxy)-2-(1-ethyl-3-methyl-1H-pyrazole-5-carboxamido)-1H-benzo[d]imidazole-5-carboxamide]
< 50 nM	CCN(CC)S(=O)(=O)N1CCC(C#CCOc2cc(C(N)=O)cc3nc(NC(=O)c4cc(C)nn4CC)n(C/C=C/Cn4c(NC(=O)c5cc(C)nn5CC)nc5cc(C(N)=O)cc(OC)c54)c23)CC1 [Example 25, (E)-1-(4-(5-carbamoyl-2-(1-ethyl-3-methyl-1H-pyrazole-5-carboxamido)-7-methoxy-1H-benzo[d]imidazol-1-yl)but-2-en-1-yl)-7-((3-(1-(N,N-diethylsulfamoyl)piperidin-4-yl)prop-2-yn-1-yl)oxy)-2-(1-ethyl-3-methyl-1H-pyrazole-5-carboxamido)-1H-benzo[d]imidazole-5-carboxamide]

The next lines start with the compound.

Compound	EC50
CCn1nc(C)cc1C(=O)Nc1nc2cc(C(N)=O)cc(OC)c2n1C/C=C/Cn1c(NC(=O)c2cc(C)nn2CC)nc2cc(C(N)=O)cc(OCC#CC3CCN(C(=O)N4CCOCC4)CC3)c21 [Example 15, (E)-1-(4-(5-carbamoyl-2-(1-ethyl-3-methyl-1H-pyrazole-5-carboxamido)-7-((3-(1-(morpholine-4-carbonyl)piperidin-4-yl)prop-2-yn-1-yl)oxy)-1H-benzo[d]imidazol-1-yl)but-2-en-1-yl)-2-(1-ethyl-3-methyl-1H-pyrazole-5-carboxamido)-7-methoxy-1H-benzo[d]imidazole-5-carboxamide]	< 50 nM
CCn1nc(C)cc1C(=O)Nc1nc2cc(C(N)=O)cc(OC)c2n1C/C=C/Cn1c(NC(=O)c2cc(C)nn2CC)nc2cc(C(N)=O)cc(OCC#CC3CCN(C(=O)N4CCN(C(=O)OC(C)(C)C)CC4)CC3)c21 [Example 16, tert-butyl (E)-4-(4-(3-((5-carbamoyl-1-(4-(5-carbamoyl-2-(1-ethyl-3-methyl-1H-pyrazole-5-carboxamido)-7-methoxy-1H-benzo[d]imidazol-1-yl)but-2-en-1-yl)-2-(1-ethyl-3-methyl-1H-pyrazole-5-carboxamido)-1H-benzo[d]imidazol-7-yl)oxy)prop-1-yn-1-yl)piperidine-1-carbonyl)piperazine-1-carboxylate]	< 50 nM
CCn1nc(C)cc1C(=O)Nc1nc2cc(C(N)=O)cc(OC)c2n1C/C=C/Cn1c(NC(=O)c2cc(C)nn2CC)nc2cc(C(N)=O)cc(OCC#CC3CCN(C(=O)N4CCNCC4)CC3)c21 [Example 17, (E)-1-(4-(5-carbamoyl-2-(1-ethyl-3-methyl-1H-pyrazole-5-carboxamido)-7-((3-(1-(piperazine-1-carbonyl)piperidin-4-yl)prop-2-yn-1-yl)oxy)-1H-benzo[d]imidazol-1-yl)but-2-en-1-yl)-2-(1-ethyl-3-methyl-1H-pyrazole-5-carboxamido)-7-methoxy-1H-benzo[d]imidazole-5-carboxamide hydrochloride]	< 50 nM
CCn1nc(C)cc1C(=O)Nc1nc2cc(C(N)=O)cc(OC)c2n1C/C=C/Cn1c(NC(=O)c2cc(C)nn2CC)nc2cc(C(N)=O)cc(OCC#CC3CCN(C(=O)N4CCC(O)CC4)CC3)c21 [Example 18, (E)-1-(4-(5-carbamoyl-2-(1-ethyl-3-methyl-1H-pyrazole-5-carboxamido)-7-((3-(1-(4-hydroxypiperidine-1-carbonyl)piperidin-4-yl)prop-2-yn-1-yl)oxy)-1H-benzo[d]imidazol-1-yl)but-2-en-1-yl)-2-(1-ethyl-3-methyl-1H-pyrazole-5-carboxamido)-7-methoxy-1H-benzo[d]imidazole-5-carboxamide]	< 50 nM
CCn1nc(C)cc1C(=O)Nc1nc2cc(C(N)=O)cc(OC)c2n1C/C=C/Cn1c(NC(=O)c2cc(C)nn2CC)nc2cc(C(N)=O)cc(OCC#CC3CCN(S(=O)(=O)c4ccc(C)cc4)CC3)c21 [Example 23, (E)-1-(4-(5-carbamoyl-2-(1-ethyl-3-methyl-1H-pyrazole-5-carboxamido)-7-((3-(1-tosylpiperidin-4-yl)prop-2-yn-1-yl)oxy)-1H-benzo[d]imidazol-1-yl)but-2-en-1-yl)-2-(1-ethyl-3-methyl-1H-pyrazole-5-carboxamido)-7-methoxy-1H-benzo[d]imidazole-5-carboxamide]	< 50 nM
